# In patent publication US7396837B2, “Antitumoral analogs of lamellarins” (Pharma Mar, S.A.U., priority 2002, dated 2008):
# How the values were obtained:
# Format in all cases: cell-based
# [1] = SRB colorimetric cell growth inhibition assay, H-MEC-1; settings: human, H-MEC-1 cells; H-MEC-1; cell killing (cytotoxic effect); read-out: LC50 H-MEC-1
# How it was run: (§1)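 Growth inhibition (GI), total growth inhibition (TGI, cytostatic) and lethal concentration (LC, cytotoxic) come from an SRB-based colorimetric measure of growth and viability. Data are triplicate-well means ± SD.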
# H-MEC-1 = assay: as above; settings: Homo sapiens, HMEC-1, H-MEC-1
# How it was run: as §1
# SK-MEL-28 = assay: SRB colorimetric cell growth inhibition assay, SK-MEL-28; settings: Homo sapiens, SK-MEL-28, MEL-28
# How it was run: (§2)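 Continuous drug exposure of human cancer cells; SRB protein stain read-out; triplicate wells, mean ± SD; GI, TGI, LC computed.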
# LoVo = assay: SRB colorimetric cell growth inhibition assay, LoVo; settings: Homo sapiens, LoVo
# How it was run: as §2
# IGROV = assay: SRB colorimetric cell growth inhibition assay, IGROV; settings: Homo sapiens, IGROV
# How it was run: as §2
# DU-145 = assay: SRB colorimetric cell growth inhibition assay, DU-145; settings: Homo sapiens, DU-145, DU-145
# How it was run: as §2
# LoVo-Dox = assay: SRB colorimetric cell growth inhibition assay, LoVo-Dox (MDR); settings: Homo sapiens, LOVO-DOX
# How it was run: as §2
# A-549 = assay: SRB colorimetric cell growth inhibition assay, A-549; settings: Homo sapiens, A549, A-549
# How it was run: as §2
# LNCaP = assay: SRB colorimetric cell growth inhibition assay, LNCaP; settings: Homo sapiens, LNCaP, LN-caP
# How it was run: as §2
# PANC-1 = assay: SRB colorimetric cell growth inhibition assay, PANC-1; settings: Homo sapiens, PANC-1, PANC-1
# How it was run: as §2
# K-562 = assay: SRB colorimetric cell growth inhibition assay, K-562; settings: Homo sapiens, K562, K-562
# How it was run: as §2
# HT-29 = assay: SRB colorimetric cell growth inhibition assay, HT-29; settings: Homo sapiens, HT-29, HT-29
# How it was run: as §2
# SK-BR-3 = assay: SRB colorimetric cell growth inhibition assay, SK-BR-3; settings: Homo sapiens, SK-BR-3, SK-BR-3
# How it was run: as §2
# IGROV-ET = assay: SRB colorimetric cell growth inhibition assay, IGROV-ET (ET-743 resistant); settings: Homo sapiens, IGROV-ET
# How it was run: as §2
# SKOV-3 = assay: SRB colorimetric cell growth inhibition assay, SKOV-3; settings: Homo sapiens
# How it was run: as §1
smiles,measurement,setting,value
COc1cc(-c2c3c4cc(OC)c(O)cc4oc(=O)c3n3ccc4cc(OC)c(OC)cc4c23)ccc1O [Compound 26],LC50 (concentration giving 50% net cell killing),[1],19.5 µM
same,GI50,"H-MEC-1; GI=growth inhibition, read-out: GI50 H-MEC-1",0.798 µM
same,IC (TGI),"H-MEC-1; total growth inhibition (cytostatic effect), read-out: TGI H-MEC-1",19.5 µM
same,GI50,"SK-MEL-28; GI=growth inhibition, read-out: GI50 MEL-28",2.08 µM
same,CC50,"SK-MEL-28; cell killing (cytotoxic effect), read-out: LC50 MEL-28",19.5 µM
same,IC (TGI),"SK-MEL-28; total growth inhibition (cytostatic effect), read-out: TGI MEL-28",7.79 µM
same,GI50,"LoVo; GI=growth inhibition, read-out: GI50 LOVO",1.19 µM
same,CC50,"LoVo; cell killing (cytotoxic effect), read-out: LC50 LOVO",19.5 µM
same,IC (TGI),"LoVo; total growth inhibition (cytostatic effect), read-out: TGI LOVO",10 µM
same,GI50,"IGROV; GI=growth inhibition, read-out: GI50 IGROV",0.504 µM
same,CC50,"IGROV; cell killing (cytotoxic effect), read-out: LC50 IGROV",13 µM
same,IC (TGI),"IGROV; total growth inhibition (cytostatic effect), read-out: TGI IGROV",2.3 µM
same,GI50,"DU-145; GI=growth inhibition, read-out: GI50 DU-145",0.611 µM
same,CC50,"DU-145; cell killing (cytotoxic effect), read-out: LC50 DU-145",19.5 µM
same,IC (TGI),"DU-145; total growth inhibition (cytostatic effect), read-out: TGI DU-145",2.94 µM
same,GI50,"LoVo-Dox; GI=growth inhibition, read-out: GI50 LOVO-DOX",0.867 µM
same,CC50,"LoVo-Dox; cell killing (cytotoxic effect), read-out: LC50 LOVO-DOX",19.5 µM
same,IC (TGI),"LoVo-Dox; total growth inhibition (cytostatic effect), read-out: TGI LOVO-DOX",7.63 µM
same,GI50,"A-549; GI=growth inhibition, read-out: GI50 A-549",1.11 µM
same,CC50,"A-549; cell killing (cytotoxic effect), read-out: LC50 A-549",19.5 µM
same,IC (TGI),"A-549; total growth inhibition (cytostatic effect), read-out: TGI A-549",8.1 µM
same,GI50,"LNCaP; GI=growth inhibition, read-out: GI50 LN-caP",0.711 µM
same,CC50,"LNCaP; cell killing (cytotoxic effect), read-out: LC50 LN-caP",14.7 µM
same,IC (TGI),"LNCaP; total growth inhibition (cytostatic effect), read-out: TGI LN-caP",4.3 µM
same,GI50,"PANC-1; GI=growth inhibition, read-out: GI50 PANC-1",1.07 µM
same,CC50,"PANC-1; cell killing (cytotoxic effect), read-out: LC50 PANC-1",19.5 µM
same,IC (TGI),"PANC-1; total growth inhibition (cytostatic effect), read-out: TGI PANC-1",8.8 µM
same,GI50,"K-562; GI=growth inhibition, read-out: GI50 K-562",0.785 µM
same,CC50,"K-562; cell killing (cytotoxic effect), read-out: LC50 K-562",16.1 µM
same,IC (TGI),"K-562; total growth inhibition (cytostatic effect), read-out: TGI K-562",3.41 µM
same,GI50,"HT-29; GI=growth inhibition, read-out: GI50 HT-29",9.17 µM
same,CC50,"HT-29; cell killing (cytotoxic effect), read-out: LC50 HT-29",19.5 µM
same,IC (TGI),"HT-29; total growth inhibition (cytostatic effect), read-out: TGI HT-29",19.5 µM
same,GI50,"SK-BR-3; GI=growth inhibition, read-out: GI50 SK-BR-3",0.0966 µM
same,CC50,"SK-BR-3; cell killing (cytotoxic effect), read-out: LC50 SK-BR-3",13.6 µM
same,IC (TGI),"SK-BR-3; total growth inhibition (cytostatic effect), read-out: TGI SK-BR-3",1.09 µM
same,GI50,"IGROV-ET; GI=growth inhibition, read-out: GI50 IGROV-ET",0.574 µM
same,CC50,"IGROV-ET; cell killing (cytotoxic effect), read-out: LC50 IGROV-ET",19.5 µM
same,IC (TGI),"IGROV-ET; total growth inhibition (cytostatic effect), read-out: TGI IGROV-ET",2.08 µM
same,GI50,"SKOV-3; SK-OV-3, SKOV-3, GI=growth inhibition, read-out: GI50 SKOV-3",0.874 µM
same,LC50 (concentration causing 50% net cell killing),"SKOV-3; SK-OV-3, SKOV-3, cell killing (cytotoxic effect), read-out: LC50 SKOV-3",19.5 µM
same,IC (TGI),"SKOV-3; SK-OV-3, SKOV-3, total growth inhibition (cytostatic effect), read-out: TGI SKOV-3",5.53 µM
